Results: patent US8962265B2, “Mutant parasites for use as vaccines and platforms for screening for compounds” (Indiana University Research and Technology Corp., priority 2010, dated 2015)

Tested on: TgIF2α
Experiment: Western blot of TgIF2α phosphorylation
Format: cell-based, Toxoplasma gondii
Settings: wild-type parasites treated with the ionophore
Protocol: In order to confirm that the TgIF2α-S71A clone could not be phosphorylated under normal physiological condition, a Western blot of lysates from parasites treated with the ionophore A23187 was carried out using antisera that specifically recognizes TgIF2α which is phosphorylated at ser-71 or total TgIF2α protein (Narasimhan et al., 2008b; Sullivan Jr. et al., 2004b). Referring now to FIG. 1C, equal amounts of protein lysates from WT or TgIF2α-S71A tachyzoites were resolved on a 4-12% polyacrylamide gel and transferred to a membrane for immunoblotting with antibody that specifically recognizes TgIF2α phosphorylated at ser-71 (TgIF2α-P) or total TgIF2α protein. […]
Next addressed was whether TgIF2K-D is required for induced TgIF2α phosphorylation when the parasite is outside of the host cell. Referring now to FIG. 9A, TgIF2α phosphorylation was analyzed by separating cell lysates via denaturing SDS-PAGE, followed by western blotting using antibodies to total TgIF2α or phosphorylated TgIF2α (TgIF2α˜P). […]
Phosphorylation of TgIF2α was monitored by Western blotting performed in accordance with standard methods. […]
Western blot analyses of TgIF2α phosphorylation were carried out as previously described. […] HA-tagged proteins were detected by western blot analyses after resolving parasite lysate on a 3-8% Tris-acetate polyacrylamide gradient gel. […]

Question: With `CNc1ccc2oc(C[C@H]3O[C@@]4(CC[C@H]3C)O[C@H]([C@H](C)C(=O)c3ccc[nH]3)[C@H](C)C[C@H]4C)nc2c1C(=O)O` [A23187] as the compound, how does the “induction of TgIF2α phosphorylation” value read?
Answer: potent inducer
